The values that follow come from US20110263668A1, “Beta 3-Adrenoreceptor Agonists for the Treatment of Cardiac Hypertrophy and Heart Failure” (THE JOHNS HOPKINS UNIVERSITY, priority 2009, published 2011).

In this experiment the test system is β3−/− and WT mice with transverse aortic constriction (TAC). Kind of experiment: Echocardiography in β3−/− and WT mice after TAC with BH4 in the diet. Type of experiment: in vivo, mouse. As to conditions: BH4 200 mg/kg/day in soft diet. How it is done: Experimental Model. Baseline echocardiography was performed on 8-week, 4-month, and 14-18 month-old homozygous β3^−/− mice (n=57 total, original breeding pairs kindly provided by Dr. Bradford Lowell (Klein et al. (1999)) and age-matched FVB background WT controls (n=13, Jackson Laboratories, Bar Harbor, Me.). Transverse aortic constriction (TAC) was performed on 8-week-old male β3^−/− (n=21) and age-matched male WT controls (n=24) as previously described (Takimoto et al. (2005)). Briefly, after anesthesia with isoflurane (2%), the chest was opened through a small thoracic window between ribs 2 and 4, and a 25 G needle placed on the transverse aorta. This needle size was chosen to elicit a milder response as initial studies using a standard TAC model (27 G needle) led to pulmonary edema and 100% early mortality in β3^−/− mice. The band was secured using a 7.0 prolene suture, the needle was then removed and the chest closed. Twelve animals per strain underwent sham surgery. To measure pressure changes after TAC, pressure volume loops were obtained using a Millar micromanometer catheter as previously described (Barouch et al. (2002)). Animals were sacrificed 3 or 9 weeks after TAC and myocardial tissue preserved in 10% formalin or snap-frozen in liquid nitrogen for subsequent analysis. To determine whether there were any differences in proximal pressures after TAC between strains, a 1.4 F pressure catheter (Millar Instruments, Houston, Tex.) was advanced into the ascending aorta from the LV, and pressures recorded before and after TAC. […] In vivo cardiac geometry and function were serially assessed by transthoracic echocardiography (Acuson Sequoia C256, 13 MHz transducer; Siemens) in conscious mice. M-mode LV end-systolic and end-diastolic cross-sectional diameter (LVESD, LVEDD), and the mean of septal and posterior wall thicknesses were determined from an average of 3-5 cardiac cycles. LV fractional shortening (% FS) and LV mass were determined using a cylindrical model as previously described (Barouch et al. (2003)).

Each structure is given as a SMILES string.

Turning to `C[C@H](O)[C@H](O)[C@H]1CNc2nc(N)[nH]c(=O)c2N1` [BH4, tetrahydrobiopterin], under “WT-TAC/BH4, 3 weeks of TAC”, the “change in fractional shortening” value is −1.8±3.0%. In addition, under “β3−/− TAC/BH4, 3 weeks of TAC”, the “change in fractional shortening” value was −0.4±0.2% and the “increase in calculated LV mass” value is “+15.0±6.8%”.
